A short description of data set [1]: Single dose study, PK profile of triheptanoin and metabolites. The conditions noted are these: single oral gavage dose, Day 1, mini-pigs. The class given is in vivo. As to the method:
Single dose study of each arm with full pharmacokinetics (PK) profile through 48 hours post dose was performed to determined when metabolites return to baseline (one week washout between each arm) as well as if acute release of gastrin and cholesystokinin (CCK) hormones cause spasmodic stomach contractions. Blood samples were collected from each arm 0-90 min plus anytime outside this window if gastric distress observed.
More specifically, animals (n=3/sex) were fasted prior to dose and fed 4 hrs post dose. Blood samples for PK analysis of triheptanoin and metabolites were collected pre-dose through 48 hrs post dose.
In FIGS. 1-21, animals were administered a single oral gavage dose level of a triheptanoin oil sample (i.e., the oil) or exemplary solid samples comprising triheptanoin oil in accordance with the present invention. The two exemplary solid compositions comprise 1) 60%:20%:20% of triheptanoin oil:Cab-O-Sil:cellulose acetate (i.e., the Powder-ER); and 2) 80%:20% of triheptanoin oil:Cab-O-Sil (i.e., the Powder), respectively.

Data set [2] is described as follows: Storage stability of triheptanoin oil. The conditions noted are these: stored at room temperature and protected from light. In kind it is physicochemical. An excerpt:
In some embodiments, the triheptanoin oil as described herein is a colorless oil of low viscosity and is odorless and tasteless. Triheptanoin oil as described herein is typically stored at room temperature and protected from light, and its stability can exceed 24 months under such conditions.

For a further data set, the system named is mini-pigs. Description: Multiple dose study, vomiting and gastric distress observations.
Data set [3] can be described thus: Multiple dose study, metabolite PK profiles Day 1 and Day 7.

These results are taken from US12551461B2, “Compositions of triglycerides and uses thereof” (Ultragenyx Pharmaceutical Inc., priority 2013, dated 2026).

Each structure is given as a SMILES string. “Also recorded” adds a separate entry of the source.

On to `CCCCCCC(=O)OCC(COC(=O)CCCCCC)OC(=O)CCCCCC` [triheptanoin oil, propane-1,2,3-triyl triheptanoate], for which the “levels of ketones (C4-OH, C5-OH)” value in data set [1] is “comparable levels of ketones”. Moreover, the stability result in data set [2] is on record as “exceed 24 months”. Also, the “vomiting or gastric distress observed” value in the data set on mini-pigs was “Day 1: Animal #6501 vomited ˜3 hours post dose; also recorded: Day 1: Animal #6516 vomited ˜3 hours post dose; also recorded: Day 5: Animal #6509 gastric distressed observed”. Besides, in data set [3] (Day 1 and Day 7, mini-pigs), the Propionylglycine levels entry is recorded as “essentially zero” and the pimelic acid levels result is “highest amount of pimelic acid”. Further, in data set [3] (mini-pigs), the “conversion of triheptanoin to C7” value is on record as “All triheptanoin oil was converted to C7” and the triheptanoin levels entry was “no triheptanoin values”.
